In patent US10350158B2, “2′ fluoro-modified RNAs as immunostimulators” (DUKE UNIVERSITY, priority 2013, dated 2019):
Strand notation (5' to 3'): a small letter for the sugar, then the base; units joined by * are phosphorothioate-linked, units joined directly phosphodiester-linked; [ ] holds rarer units or linkages, { } end groups; capitals alone tell only the bases. {ppp} = triphosphate; r = 2'-OH (RNA); f = 2'-fluoro

Tests used:
[1] = system: IFNβ; assay: IFNβ ELISA of transfected melanoma cell supernatants; assay type: cell-based, human
Protocol: For the intracellular delivery of immune stimulatory RNAs, RNAs were transfected with the DharmaFECT® Duo liposomal transfection reagent (Thermo Scientific, Waltham, Mass.) at a transfection reagent (μl):RNA (μg) ratio of 3.75:1, according to the manufacturer's instructions. Unless otherwise stated, for the induction of innate immune responses and apoptosis, immune stimulatory RNAs (500 ng/ml) were transfected into 50 to 70% confluent cells. Cells were incubated with an RNA-transfection agent complex for 5 h, followed by replenishment with fresh culture medium. To electroporate cells, 1×10^5 cells suspended in 200 μl Opti-MEM I (Invitrogen) were mixed with 1 μg of immune stimulatory RNAs or 5 μg of 2'Fluoro pyrimidine ribonucleoside triphosphate in 2-mm cuvettes and were electroporated at 300 V for 500 μs using an Electro Square Porator ECM 830 (BTX, San Diego, Calif.). For the knockdown of RNA-sensing PRRs, cells were transfected with PRR-specific siRNAs (25 nM) twice at 2-day intervals using DharmaFECT®-1 (Thermo Scientific). At 5 h after the second siRNA transfection, cells were harvested, replated into a 96-well plate and incubated overnight. Cells were then treated with immune stimulatory RNA transfections. Staurosporine (2 μM) (Sigma, St Louis, Mo.) and recombinant human IFNβ (20 ng/ml) (PeproTech, Rocky Hill, N.J.) were used as positive controls of anti-melanoma cytotoxicity. […] (100 ng/ml) (eBioscience, San Diego, Calif.) was added directly to the growth media of cells to neutralize IFNβ. Cells were transfected with RNAs as described above. At 24 hours after RNA transfection, culture supernatants were collected and stored at -80° C. for later analyses. The production of human IL-8 was analyzed with a human IL-8 ELISA kit (eBioscience). IFN-β production was determined with a human IFN-β ELISA kit (PBL Biomedical Laboratories, Piscataway, N.J.) by following the manufacturer's instructions.

[2] = system: WM266-4 cells; assay: Apoptosis / cell death by Annexin V-PE and 7-AAD flow cytometry; assay type: cell-based, human; conditions: aptamer treated with bacterial alkaline phosphatase (BAP), 0.125 μg/ml
Protocol: For the intracellular delivery of immune stimulatory RNAs, RNAs were transfected with the DharmaFECT® Duo liposomal transfection reagent (Thermo Scientific, Waltham, Mass.) at a transfection reagent (μl):RNA (μg) ratio of 3.75:1, according to the manufacturer's instructions. Unless otherwise stated, for the induction of innate immune responses and apoptosis, immune stimulatory RNAs (500 ng/ml) were transfected into 50 to 70% confluent cells. Cells were incubated with an RNA-transfection agent complex for 5 h, followed by replenishment with fresh culture medium. […]
(§1) Growth inhibition relative to untreated cells was quantified at 72 h after RNA transfection using an MTT Cell Proliferation Assay Kit (Cayman Chemicals, Ann Arbor, Mich.), according to the manufacturer's instructions. The percent growth inhibition was calculated by using the following equation: % growth inhibition=([O.D.]untreated−[O.D.]treated)/[O.D.]untreated×100. The induction of cell death was measured 48 h after RNA transfection by flow cytometry after staining with Annexin V-PE and 7-Aminoactinomycin D (7-AAD) using the PE Annexin V Apoptosis Detection Kit I (BD Biosciences, San Jose, Calif.) and analyzed using the CellQuest software (BD Biosciences).

[3] = target: T1, Human TLR7 (Homo sapiens, UniProt Q9NYK1); assay: IL-8 production by human TLR7-expressing HEK293 cells; assay type: cell-based
T1 construct: expressed in transfected cells; host or cells: HEK293 (HEK-TLR7), gift of Dr. Todd Brennan, Duke University
T1 sequence (Q9NYK1 27-1049): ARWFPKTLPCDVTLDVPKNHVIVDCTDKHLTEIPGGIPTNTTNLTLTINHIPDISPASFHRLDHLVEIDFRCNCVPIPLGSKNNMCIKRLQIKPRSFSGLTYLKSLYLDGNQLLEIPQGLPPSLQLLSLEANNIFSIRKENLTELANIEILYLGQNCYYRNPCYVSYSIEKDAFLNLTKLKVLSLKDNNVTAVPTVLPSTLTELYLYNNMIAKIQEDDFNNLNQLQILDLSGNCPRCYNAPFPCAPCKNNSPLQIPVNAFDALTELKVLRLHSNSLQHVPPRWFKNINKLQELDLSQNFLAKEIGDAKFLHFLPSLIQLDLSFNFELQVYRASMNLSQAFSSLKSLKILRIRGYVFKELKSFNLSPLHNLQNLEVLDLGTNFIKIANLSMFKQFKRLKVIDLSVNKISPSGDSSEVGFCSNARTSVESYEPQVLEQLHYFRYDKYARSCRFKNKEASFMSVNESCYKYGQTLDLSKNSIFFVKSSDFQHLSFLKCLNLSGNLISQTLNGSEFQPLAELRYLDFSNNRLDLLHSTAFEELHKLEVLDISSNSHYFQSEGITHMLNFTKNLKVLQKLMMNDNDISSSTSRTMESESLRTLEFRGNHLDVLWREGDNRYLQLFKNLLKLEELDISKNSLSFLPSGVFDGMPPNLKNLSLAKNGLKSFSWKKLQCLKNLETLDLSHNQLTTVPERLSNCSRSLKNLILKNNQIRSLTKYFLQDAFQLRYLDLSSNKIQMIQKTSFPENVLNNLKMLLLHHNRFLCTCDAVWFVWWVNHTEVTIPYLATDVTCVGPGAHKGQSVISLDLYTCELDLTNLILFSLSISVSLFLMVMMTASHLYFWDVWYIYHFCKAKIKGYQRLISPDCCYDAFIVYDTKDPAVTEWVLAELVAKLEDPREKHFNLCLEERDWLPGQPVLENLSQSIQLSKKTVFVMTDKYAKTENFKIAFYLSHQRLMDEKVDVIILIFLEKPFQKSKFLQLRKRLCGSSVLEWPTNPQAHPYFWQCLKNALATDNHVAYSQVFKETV
Protocol: (§2) The human TLR3 reporter cell, HEK-hTLR3-NFκB/SEAP was purchased from Invivogen. These cells were stably co-transfected with the human TLR3 gene and an inducible SEAP (secreted embryonic alkaline phosphatase) reporter gene into HEK293 cells. The SEAP gene is placed under the control of NF-κB and AP-1. […] SEAP gene expression was measured using the SEAP detection media QUANTI-BLUE (Invivogen), according to the manufacturer's instructions. FIG. 3B is a graph showing that TLR7 is not stimulated by the ssRNAs. Human TLR7-expressing HEK293 cells were kindly provided by Dr. Todd Brennan (Duke University, Durham, N.C.). Treatment with R848 but not with polyI:C, polyI:C-DF and 5′ppp 2′F 10F-DF complexes stimulated HEK-TLR7 cells to produce the inflammatory cytokine IL-8. The data represent the mean of two experiments. Error bars represent the S.D.

[4] = target: T2, human TLR3 (Homo sapiens, UniProt O15455); assay: HEK-hTLR3-NFκB/SEAP reporter assay; assay type: cell-based; conditions: QUANTI-BLUE
T2 construct: host or cells: HEK293 (HEK-hTLR3-NFκB/SEAP)
Protocol: as §2

[5] = system: RIG-I, MDA-5, and PKR; assay: Western blot of RNA-sensing PRR expression after transfection; assay type: cell-based, human; conditions: 24 hours after treatment
Protocol: FIG. 2A is a set of FACS plots showing induction of apoptosis. WM266-4 cells were incubated with either liposome (DF) alone or 5′ppp 2′F 10F-liposome complex (10F/DF). At 5 h after incubation, cells were replenished with fresh culture medium. Cells were then incubated for an additional 48 hours, harvested and analyzed for cell death. FIG. 2B is a set of Western blots showing activation of caspases and PARP after transfection. WM266-4 cells were either mock-treated, treated with the 5′ppp 2′F 10F without the transfection reagent, or with the 5′ppp 2′F 10E-transfection reagent complex at the indicated concentrations (1 μg/ml or 0.5 μg/ml). The activation of caspase-7, -9, and PARP was assessed by western blot using antibodies specific to the activated (cleaved) proteins (24 h after treatment). Staurosporine-treated cells were used as a positive control. […] The growth inhibition was assessed at 72 h after electroporation. […] WM266-4 cells were treated as in (FIG. 2B), and the expression of RIG-I, MDA-5, and PKR was analyzed at 24 hours after treatments. […]
Cell lysates were prepared in 1×RIPA buffer (Sigma) in the presence of the complete protease inhibitor cocktail (Roche). […] When different proteins were sequentially detected on the same membrane, membranes were treated for 8 minutes with Restore Western Blot Stripping Buffer (Thermo Scientific), washed, blocked and probed again, as described above. […]

[6] = system: WM266-4 cells; assay type: cell-based; conditions: MTT
Protocol: For the intracellular delivery of immune stimulatory RNAs, RNAs were transfected with the DharmaFECT® Duo liposomal transfection reagent (Thermo Scientific, Waltham, Mass.) at a transfection reagent (μl):RNA (μg) ratio of 3.75:1, according to the manufacturer's instructions. Unless otherwise stated, for the induction of innate immune responses and apoptosis, immune stimulatory RNAs (500 ng/ml) were transfected into 50 to 70% confluent cells. Cells were incubated with an RNA-transfection agent complex for 5 h, followed by replenishment with fresh culture medium. To electroporate cells, 1×10^5 cells suspended in 200 μl Opti-MEM I (Invitrogen) were mixed with 1 μg of immune stimulatory RNAs or 5 μg of 2′Fluoro pyrimidine ribonucleoside triphosphate in 2-mm cuvettes and were electroporated at 300 V for 500 μs using an Electro Square Porator ECM 830 (BTX, San Diego, Calif.). For the knockdown of RNA-sensing PRRs, cells were transfected with PRR-specific siRNAs (25 nM) twice at 2-day intervals using DharmaFECT®-1 (Thermo Scientific). At 5 h after the second siRNA transfection, cells were harvested, replated into a 96-well plate and incubated overnight. Cells were then treated with immune stimulatory RNA transfections. Staurosporine (2 μM) (Sigma, St Louis, Mo.) and recombinant human IFNβ (20 ng/ml) (PeproTech, Rocky Hill, N.J.) were used as positive controls of anti-melanoma cytotoxicity. B18R (100 ng/ml) (eBioscience, San Diego, Calif.) was added directly to the growth media of cells to neutralize IFNβ.
as §1

T2 sequence (O15455 24-904): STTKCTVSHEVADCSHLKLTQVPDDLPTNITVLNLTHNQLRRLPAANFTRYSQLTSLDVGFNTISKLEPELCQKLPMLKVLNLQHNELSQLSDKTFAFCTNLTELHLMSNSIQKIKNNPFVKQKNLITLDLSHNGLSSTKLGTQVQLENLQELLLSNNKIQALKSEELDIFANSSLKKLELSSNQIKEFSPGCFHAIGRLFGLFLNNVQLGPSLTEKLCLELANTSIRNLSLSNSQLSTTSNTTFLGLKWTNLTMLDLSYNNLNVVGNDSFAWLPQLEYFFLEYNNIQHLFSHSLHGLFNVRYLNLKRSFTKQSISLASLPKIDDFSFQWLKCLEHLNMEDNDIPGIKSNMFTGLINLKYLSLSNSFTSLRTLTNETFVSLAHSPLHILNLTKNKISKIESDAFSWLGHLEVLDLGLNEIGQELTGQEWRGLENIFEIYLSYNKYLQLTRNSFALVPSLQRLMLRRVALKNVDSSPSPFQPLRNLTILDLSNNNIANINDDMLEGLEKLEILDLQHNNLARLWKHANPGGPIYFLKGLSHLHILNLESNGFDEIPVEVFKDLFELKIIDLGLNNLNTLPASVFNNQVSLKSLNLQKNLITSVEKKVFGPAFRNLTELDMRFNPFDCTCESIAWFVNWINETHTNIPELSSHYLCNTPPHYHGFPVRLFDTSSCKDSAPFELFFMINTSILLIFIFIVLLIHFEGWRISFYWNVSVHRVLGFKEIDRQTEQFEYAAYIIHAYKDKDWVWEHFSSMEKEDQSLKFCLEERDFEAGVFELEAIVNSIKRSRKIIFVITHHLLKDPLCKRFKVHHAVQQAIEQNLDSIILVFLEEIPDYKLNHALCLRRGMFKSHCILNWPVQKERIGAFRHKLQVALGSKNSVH

9.14T10: 5′ppp 2′F ssRNA aptamer, 60 nt, von Willebrand Factor-specific, SEQ ID NO: 6 ({ppp}-rGrGrGrArGrGfUrGrGrAfCrGrArAfCfUrGfCfCfCfUfCrArGfCfUrAfCfUfUfUfCrAfUrGfUfUrGfCfUrGrAfCrGfCrAfCrArGrAfCrGrAfCfUfCrGfCfUrG) [Aptamer 9.14T10]
IFNβ production after dephosphorylation of the aptamer ([1]; aptamer treated with bacterial alkaline phosphatase (BAP), 0.125 μg/ml): partially prevented
apoptosis after dephosphorylation of the aptamer [2]: partially prevented

CCOCc1nc2c(N)nc3ccccc3c2n1CC(C)(C)O [Aptamer R848, R848]
stimulation of HEK-TLR7 cells to produce IL-8 [3]: stimulated
stimulation of TLR3 reporter cells (SEAP) [4]: not

CN[C@@H]1C[C@H]2O[C@@](C)([C@@H]1OC)n1c3ccccc3c3c4c(c5c6ccccc6n2c5c31)C(=O)NC4 [staurosporine]
induction of RIG-I, MDA-5 and PKR expression [5]: not observed

Motif 1: 29-mer 5′ppp-2′F ssRNA, 5′overhang stem-loop, first 29 nucleotides of 10F, SEQ ID NO: 14 ({ppp}-rGrGrGrArGrGrAfCrGrAfUrGfCrGrGfUrAfCfCfUrGrAfCrArGfCrAfUfC)
IFNβ induction compared to 10F treatment, in words ([1]; IFNβ ELISA): significantly lower
cytotoxicity compared to 10F treatment, in words [6]: significantly lower

Motif 1A: 37-mer extended variant of Motif 1 with longer 5′overhang, SEQ ID NO: 15 ({ppp}-rGrGrGfUrArArGfUrGrGrGrArGrGrAfCrGrAfUrGfCrGrGfUrAfCfCfUrGrAfCrArGfCrAfUfC)
IFNβ production compared to treatment with Motif 1 ([1]; IFNβ ELISA): significantly decreased
cytotoxic effect compared to treatment with Motif 1 [6]: significantly decreased

Motif 3: 30-mer extended variant of Motif 2, 3′overhang stem-loop, SEQ ID NO: 17 ({ppp}-rGrGrAfUrGfCrGrGfUrAfCfCfUrGrAfCrArGfCrAfUfCfUfUrGrArArAfUrA)
IFNβ induction compared to 10F treatment, in words ([1]; IFNβ ELISA): not statistically significant
cytotoxicity compared to 10F treatment, in words [6]: not statistically significant

Poly(U)30: 5′ppp-2′F ssRNA of 30 uridines, minimal secondary structure, SEQ ID NO: 13 (UUUUUUUUUUUUUUUUUUUUUUUUUUUUUU; 5'-triphosphate, 2'-fluoro modifications; Synthetic RNA Aptamer Poly(U)30)
growth inhibition / cytotoxicity (anti-melanoma effect), in words ([6]; liposomal transfection, 72 h): not

polyI:C
stimulation of HEK-TLR7 cells to produce IL-8 [3]: not
stimulation of TLR3 reporter cells (SEAP) [4]: specifically stimulated
